This assay concerns the target T1, endogenous BK channel (Rattus norvegicus, UniProt Q62976).
T1 construct: gene Kcnma1; endogenous BK in A7r5 smooth muscle cells
The experiment in a line: whole-cell patch-clamp, paxilline-sensitive current density in A7r5 cells. It is filed as cell-based. In general terms: Patch clamp records ionic current or voltage across a cell membrane.

Each structure is given as a SMILES string.

The text below walks through data of publication PMC4682634 (PLoS ONE, 2015).

A word on the EC50: it is the concentration at which the effect is half-maximal. Read a low EC50 as a more potent agent.

T1 sequence (Q62976 whole entry): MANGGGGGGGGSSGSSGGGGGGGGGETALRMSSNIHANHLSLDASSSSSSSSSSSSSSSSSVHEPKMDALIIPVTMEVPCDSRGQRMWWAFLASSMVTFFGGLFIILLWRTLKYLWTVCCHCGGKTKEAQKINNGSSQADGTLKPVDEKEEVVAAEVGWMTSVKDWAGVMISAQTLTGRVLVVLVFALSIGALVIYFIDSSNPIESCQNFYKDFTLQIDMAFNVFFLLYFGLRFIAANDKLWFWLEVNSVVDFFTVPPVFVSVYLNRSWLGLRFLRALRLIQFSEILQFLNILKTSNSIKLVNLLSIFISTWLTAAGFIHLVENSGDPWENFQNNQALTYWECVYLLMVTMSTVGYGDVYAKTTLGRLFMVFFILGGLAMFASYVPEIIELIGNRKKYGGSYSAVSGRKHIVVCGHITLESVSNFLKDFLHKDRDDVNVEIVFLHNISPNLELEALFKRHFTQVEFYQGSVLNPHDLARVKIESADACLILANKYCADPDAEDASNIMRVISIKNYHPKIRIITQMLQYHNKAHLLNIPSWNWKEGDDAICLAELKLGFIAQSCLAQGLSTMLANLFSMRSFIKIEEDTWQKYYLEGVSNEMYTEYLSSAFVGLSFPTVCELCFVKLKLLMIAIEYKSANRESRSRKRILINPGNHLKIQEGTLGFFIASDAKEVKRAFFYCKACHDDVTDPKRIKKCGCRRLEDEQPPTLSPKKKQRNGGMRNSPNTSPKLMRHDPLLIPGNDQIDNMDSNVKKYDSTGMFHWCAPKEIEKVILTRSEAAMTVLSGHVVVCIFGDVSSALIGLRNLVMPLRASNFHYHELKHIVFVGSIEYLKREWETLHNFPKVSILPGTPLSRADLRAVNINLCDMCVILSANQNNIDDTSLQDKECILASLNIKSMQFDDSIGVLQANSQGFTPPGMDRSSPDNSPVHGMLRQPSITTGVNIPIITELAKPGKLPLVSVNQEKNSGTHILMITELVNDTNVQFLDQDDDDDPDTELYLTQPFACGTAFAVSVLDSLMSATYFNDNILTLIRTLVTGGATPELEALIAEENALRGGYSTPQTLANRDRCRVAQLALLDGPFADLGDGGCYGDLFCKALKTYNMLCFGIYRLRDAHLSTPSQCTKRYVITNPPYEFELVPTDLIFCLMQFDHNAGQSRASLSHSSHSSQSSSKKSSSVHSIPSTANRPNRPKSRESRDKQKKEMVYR

Consider `COc1cc(/C=C/C(=O)CC(=O)/C=C/c2ccc(O)c(OC)c2)ccc1O` [curcumin], for which a half-maximal effect (EC50) was put at 6.93 ± 0.78 µM.
